According to patent US10597388B2, “Pyridazinone herbicides” (FMC CORPORATION, priority 2014, dated 2020):
Where two headings read alike, the source gives them in different places.

Key:
Type in all cases: in vivo
[1] = tested on: barnyardgrass (Echinochloa crus-galli); experiment: Test A greenhouse herbicide test, pre- and postemergence; settings: for pest or weed control at 125 g/ha / pest or weed control at 500 g/ha / pest or weed control at 1000 g/ha: Echinochloa crus-galli, 240 h; for pest or weed control at 1000 g/ha: 1000 g ai/ha
Outline: (§1)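 Seeds sown in loam–sand blend got a preemergence directed soil spray of compound in non-phytotoxic solvent with surfactant. Postemergence treatment was given at 2–10 cm, one- to two-leaf stage. After ~10 d in greenhouse, injury was rated visually vs untreated controls, 0 (no effect) to 100 (complete control).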

corn (Zea mays) = experiment: as above; settings: for plant injury at 1000 g/ha / Corn plant response rating (crop injury, 0 = no effect, 100 = complete kill) at 1000 g/ha: 1000 g ai/ha
Outline: as §1

[2] = tested on: barnyardgrass (Echinochloa crus-galli); experiment: Test B flooded paddy test; settings: 250 g ai/ha, Flood, visual rating on scale of 0 to 100 where 0 is no effect and 100 is complete control, 13 to 15 d after treatment; for pest or weed control at 250 g/ha: Echinochloa crus-galli, 360 h, read-out: Plant response rating, Barnyardgrass
Outline: (§2)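 Plants at the 2-leaf stage were flooded to 3 cm above soil, and test compounds were applied directly into the paddy water, which was held at that depth throughout. After 13 to 15 d in a greenhouse, injury was rated visually against untreated controls on a 0–100 scale (0 no effect, 100 complete control).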

[3] = tested on: ducksalad (Heteranthera limosa); experiment: Test B flooded paddy test; settings: 250 g ai/ha, Flood, visual rating on scale of 0 to 100 where 0 is no effect and 100 is complete control, 13 to 15 d after treatment; for pest or weed control at 250 g/ha: Heteranthera limosa, 360 h, read-out: Plant response rating, Ducksalad
Outline: as §2

rice (Oryza sativa) = experiment: Test B flooded paddy test; settings: 250 g ai/ha, Flood, visual rating on scale of 0 to 100 where 0 is no effect and 100 is complete control, 13 to 15 d after treatment; for plant injury at 250 g/ha: Oryza sativa, 360 h, read-out: Plant response rating, Rice
Outline: as §2

[4] = tested on: sedge, umbrella (small-flower umbrella sedge, Cyperus difformis); experiment: Test B flooded paddy test; settings: 250 g ai/ha, Flood, visual rating on scale of 0 to 100 where 0 is no effect and 100 is complete control, 13 to 15 d after treatment; for pest or weed control at 250 g/ha: Cyperus difformis, 360 h, read-out: Plant response rating, Sedge, Umbrella
Outline: as §2

[5] = tested on: chickweed (common chickweed, Stellaria media); experiment: Test C greenhouse herbicide test, postemergence
Outline: (§3)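 Greenhouse postemergence spray on plants 2–18 cm tall; response judged visually after 13–15 d relative to untreated controls using a 0 (none) to 100 (full control) scale.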

kochia (Kochia scoparia) = experiment: Test C greenhouse herbicide test, postemergence
Outline: as §3

[6] = tested on: oat, wild (wild oat, Avena fatua); experiment: Test C greenhouse herbicide test, postemergence
Outline: as §3

[7] = tested on: ryegrass, Italian (Italian ryegrass, Lolium multiflorum); experiment: Test A greenhouse herbicide test, pre- and postemergence
Outline: as §1

[8] = tested on: blackgrass (Alopecurus myosuroides); experiment: Test A greenhouse herbicide test, postemergence; settings: for Plant response rating, Blackgrass: 125 g ai/ha, visual rating after approx. 10 d, 0 to 100 scale (0 no effect, 100 complete control); for Blackgrass plant response rating: 500 g ai/ha, 0 to 100 scale, 0 is no effect, 100 is complete control
Outline: (§4)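 Plants grown in loam soil/sand blend pots were treated postemergence at 2 to 10 cm height, one- to two-leaf stage, with formulated test chemicals. After approximately 10 d in a greenhouse, injury was rated visually against untreated controls on a 0 to 100 scale (0 no effect, 100 complete control).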

[9] = tested on: galium (catchweed bedstraw, Galium aparine); experiment: Test A greenhouse herbicide test, postemergence; settings: for Plant response rating, Galium: 125 g ai/ha, visual rating after approx. 10 d, 0 to 100 scale (0 no effect, 100 complete control); for Galium plant response rating: 500 g ai/ha, 0 to 100 scale, 0 is no effect, 100 is complete control
Outline: as §4

[10] = Postemergence, 31 g ai/ha, 0 to 100 scale (0 no effect, 100 complete control)
[11] = Postemergence, 125 g ai/ha, scale 0 to 100, 0 is no effect, 100 is complete control
[12] = Postemergence, 250 g ai/ha, scale 0 to 100, 0 no effect, 100 complete control, 13 to 15 d
[13] = postemergence, 62 g ai/ha, scale 0 to 100, 0 no effect, 100 complete control
[14] = post-emergence, Postemergence, 0 to 100 scale, 0 is no effect, 100 is complete control, read-out: Barnyardgrass plant response rating
[15] = pre-emergence, Preemergence, 0 to 100 scale, 0 no effect, 100 complete control, read-out: Plant response rating, Barnyardgrass
[16] = Zea mays, post-emergence, 240 h, Postemergence, 0 to 100 scale, 0 is no effect, 100 is complete control, read-out: Corn plant response rating
[17] = Zea mays, pre-emergence, 240 h, Preemergence, 0 to 100 scale, 0 no effect, 100 complete control
[18] = Postemergence, 125 g ai/ha, visual rating after approx. 10 d, 0 to 100 scale (0 no effect, 100 complete control)
[19] = Postemergence, 500 g ai/ha, 0 to 100 scale, 0 is no effect, 100 is complete control
[20] = Preemergence, 125 g ai/ha, 0 to 100 scale where 0 is no effect and 100 is complete control
[21] = Preemergence, 500 g ai/ha, 0 to 100 scale, 0 no effect, 100 complete control

SMILES | pest or weed control at 250 g/ha [2] [%] | pest or weed control at 250 g/ha [3] [%] | plant injury at 250 g/ha (rice (Oryza sativa)) [%] | pest or weed control at 250 g/ha [4] [%] | Chickweed plant response rating [5, 10] | Plant response rating, Chickweed [5, 11] | Plant response rating, Chickweed [5, 12] | Chickweed plant response rating [5, 13] | Kochia plant response rating (kochia (Kochia scoparia); [10]) | Plant response rating, Kochia (kochia (Kochia scoparia); [11]) | Plant response rating, Kochia (kochia (Kochia scoparia); [12]) | Kochia plant response rating (kochia (Kochia scoparia); [13]) | Oat, Wild plant response rating [6, 10] | Plant response rating, Oat, Wild [6, 11] | Plant response rating, Oat, Wild [6, 12] | Oat, Wild plant response rating [6, 13] | pest or weed control at 1000 g/ha [1, 14] [%] | pest or weed control at 1000 g/ha [1, 15] [%] | plant injury at 1000 g/ha (corn (Zea mays); [16]) [%] | Corn plant response rating (crop injury, 0 = no effect, 100 = complete kill) at 1000 g/ha (corn (Zea mays); [17]) [%] | also measured
Cc1cc(C)c2sc(C)c(-c3c(O)c(C)nn(C)c3=O)c2c1 [Compound 2, 5-hydroxy-2,6-dimethyl-4-(2,5,7-trimethylbenzo[b]thien-3-yl)-3(2H)-pyridazinone] | 30 | 80 | 35 | 85 | 95 | 95 | 98 | 95 | 50 | 65 | 75 | 55 | 75 | 90 | 85 | 80 | – | – | – | – | pest or weed control at 125 g/ha ([1]; post-emergence, Postemergence, 125 g ai/ha, visual rating after approx. 10 d, 0 to 100 scale (0 no effect, 100 complete control), read-out: Plant response rating, Barnyardgrass): 30%; pest or weed control at 500 g/ha ([1]; post-emergence, Postemergence, 500 g ai/ha, 0 to 100 scale, 0 is no effect, 100 is complete control, read-out: Barnyardgrass plant response rating): 80%; pest or weed control at 125 g/ha ([1]; pre-emergence, Preemergence, 125 g ai/ha, 0 to 100 scale where 0 is no effect and 100 is complete control, read-out: Barnyardgrass plant response rating): 50%; pest or weed control at 500 g/ha ([1]; pre-emergence, Preemergence, 500 g ai/ha, 0 to 100 scale, 0 no effect, 100 complete control, read-out: Plant response rating, Barnyardgrass): 80%; Corn plant response rating (crop injury, 0 = no effect, 100 = complete kill) at 125 g/ha (corn (Zea mays); Zea mays, post-emergence, 240 h, Postemergence, 125 g ai/ha, visual rating after approx. 10 d, 0 to 100 scale (0 no effect, 100 complete control)): 0%; plant injury at 500 g/ha (corn (Zea mays); Zea mays, post-emergence, 240 h, Postemergence, 500 g ai/ha, 0 to 100 scale, 0 is no effect, 100 is complete control, read-out: Corn plant response rating): 20%; plant injury at 125 g/ha (corn (Zea mays); Zea mays, pre-emergence, 240 h, Preemergence, 125 g ai/ha, 0 to 100 scale where 0 is no effect and 100 is complete control, read-out: Corn plant response rating): 0%; Corn plant response rating (crop injury, 0 = no effect, 100 = complete kill) at 500 g/ha (corn (Zea mays); Zea mays, pre-emergence, 240 h, Preemergence, 500 g ai/ha, 0 to 100 scale, 0 no effect, 100 complete control): 10%
CCc1oc2ccc(C)cc2c1-c1c(O)c(C)nn(C)c1=O [Compound 10, 4-(2-ethyl-5-methyl-3-benzofuranyl)-5-hydroxy-2,6-dimethyl-3(2H)-pyridazinone] | 0 | 30 | 0 | 0 | 90 | 90 | 90 | 90 | 60 | 95 | 95 | 85 | 5 | 5 | 25 | 5 | 90 | 100 | 20 | 10 | –
Cc1nn(C)c(=O)c(-c2cccc3ccccc23)c1O [Compound 11, 5-hydroxy-2,6-dimethyl-4-(1-naphthalenyl)-3(2H)-pyridazinone] | 0 | 0 | 0 | 0 | 60 | 85 | 90 | 65 | 85 | 100 | 100 | 95 | 40 | 60 | 70 | 45 | 80 | 90 | 50 | 20 | –
Cn1nc(Br)c(O)c(-c2cccc3ccccc23)c1=O [Compound 20] | – | – | – | – | 90 | 100 | 100 | 98 | 50 | 90 | 100 | 80 | 0 | 25 | 40 | 5 | – | – | – | – | Plant response rating, Barnyardgrass [1, 18]: 30; Barnyardgrass plant response rating [1, 19]: 100; Barnyardgrass plant response rating [1, 20]: 30; Plant response rating, Barnyardgrass [1, 21]: 90; Plant response rating, Corn (corn (Zea mays); [18]): 20; Corn plant response rating (corn (Zea mays); [19]): 30; Plant response rating, Ryegrass, Italian [7, 18]: 100; Ryegrass, Italian plant response rating [7, 19]: 100; Ryegrass, Italian plant response rating [7, 20]: 90; Plant response rating, Ryegrass, Italian [7, 21]: 100; Plant response rating, Blackgrass [8]: 30; Blackgrass plant response rating [8]: 40; Plant response rating, Galium [9]: 90; Galium plant response rating [9]: 100; Plant response rating, Barnyardgrass [2]: 0; Plant response rating, Ducksalad [3]: 50; Plant response rating, Rice (rice (Oryza sativa)): 0; Plant response rating, Sedge, Umbrella [4]: 50
Cc1cc(C)c2ccccc2c1-c1c(O)c(C)nn(C)c1=O [Compound 21] | – | – | – | – | 95 | 100 | 100 | 100 | 80 | 95 | 100 | 90 | 90 | 98 | 100 | 98 | – | – | – | – | Plant response rating, Barnyardgrass [1, 18]: 90; Barnyardgrass plant response rating [1, 19]: 90; Barnyardgrass plant response rating [1, 20]: 90; Plant response rating, Barnyardgrass [1, 21]: 100; Plant response rating, Corn (corn (Zea mays); [18]): 50; Corn plant response rating (corn (Zea mays); [19]): 60; Plant response rating, Ryegrass, Italian [7, 18]: 100; Ryegrass, Italian plant response rating [7, 19]: 100; Ryegrass, Italian plant response rating [7, 20]: 100; Plant response rating, Ryegrass, Italian [7, 21]: 100; Plant response rating, Blackgrass [8]: 90; Blackgrass plant response rating [8]: 90; Plant response rating, Galium [9]: 100; Galium plant response rating [9]: 100; Plant response rating, Barnyardgrass [2]: 70; Plant response rating, Ducksalad [3]: 0; Plant response rating, Rice (rice (Oryza sativa)): 55; Plant response rating, Sedge, Umbrella [4]: 65
